According to the supplement of paper PMC10307832:

Experiments:
Assay in all cases: relative viability (nuclei count vs DMSO), 5 days (fraction); higher = more cells survive
[1] = compound: C[C@]12O[C@H](C[C@]1(O)CO)n1c3ccccc3c3c4c(c5c6ccccc6n2c5c31)CNC4=O [Lestaurtinib] + CS(=O)(=O)N1CCN(Cc2cc3nc(-c4cccc5[nH]ncc45)nc(N4CCOCC4)c3s2)CC1 [Pictilisib] (partner 1 µM)
Method in brief: (§1)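 One day after seeding in 1536-well plates, lung cancer cell lines were dosed by pin tool. Dosing was either single-drug or a fixed anchor-drug dose plus five library-drug doses (not always all listed) in √10 steps. After 5 days, nuclei were stained in one fix-and-stain step and counted on 4× images, and relative viability is the nuclei count of treated wells over that of vehicle wells, given as the median of duplicate plates.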

Lestaurtinib + Foretinib = compound: C[C@]12O[C@H](C[C@]1(O)CO)n1c3ccccc3c3c4c(c5c6ccccc6n2c5c31)CNC4=O [Lestaurtinib] + COc1cc2c(Oc3ccc(NC(=O)C4(C(=O)Nc5ccc(F)cc5)CC4)cc3F)ccnc2cc1OCCCN1CCOCC1 [Foretinib] (partner 0.25 µM)
Method in brief: as §1

[2] = compound: C[C@]12O[C@H](C[C@]1(O)CO)n1c3ccccc3c3c4c(c5c6ccccc6n2c5c31)CNC4=O [Lestaurtinib] + CC(=O)c1c(C)c2cnc(Nc3ccc(N4CCNCC4)cn3)nc2n(C2CCCC2)c1=O [Palbociclib] (partner 0.5 µM)
Method in brief: as §1

TPCA-1 + OSI-027 = compound: C1=CC(=CC=C1C2=CC(=C(S2)NC(=O)N)C(=O)N)F [TPCA-1] + COc1cccc2cc(-c3nc([C@H]4CC[C@H](C(=O)O)CC4)n4ncnc(N)c34)[nH]c12 [OSI-027] (partner 0.5 µM)
Method in brief: as §1

| Cell Line | relative viability ([1]; first compound 0.005 µM) | relative viability ([1]; first compound 0.01581 µM) | relative viability ([1]; first compound 0.05 µM) | relative viability ([1]; first compound 0.1581 µM) | relative viability ([1]; first compound 0.5 µM) | relative viability (Lestaurtinib + Foretinib; first compound 0.005 µM) | relative viability (Lestaurtinib + Foretinib; first compound 0.01581 µM) | relative viability (Lestaurtinib + Foretinib; first compound 0.05 µM) | relative viability (Lestaurtinib + Foretinib; first compound 0.1581 µM) | relative viability (Lestaurtinib + Foretinib; first compound 0.5 µM) | relative viability ([2]; first compound 0.005 µM) | relative viability ([2]; first compound 0.01581 µM) | relative viability ([2]; first compound 0.05 µM) | relative viability ([2]; first compound 0.1581 µM) | relative viability ([2]; first compound 0.5 µM) | relative viability (TPCA-1 + OSI-027; first compound 0.04 µM) | relative viability (TPCA-1 + OSI-027; first compound 0.1265 µM) | relative viability (TPCA-1 + OSI-027; first compound 0.4 µM) | relative viability (TPCA-1 + OSI-027; first compound 1.265 µM) | relative viability (TPCA-1 + OSI-027; first compound 4 µM) |
| --- | --- | --- | --- | --- | --- | --- | --- | --- | --- | --- | --- | --- | --- | --- | --- | --- | --- | --- | --- | --- |
| NCI-H2405 | 0.417 | 0.404 | 0.356 | 0.345 | 0.202 | 1.11 | 1.08 | 1.05 | 0.805 | 0.384 | 0.518 | 0.546 | 0.492 | 0.515 | 0.275 | 0.673 | 0.6 | 0.65 | 0.36 | 0.629 |
| NCI-H3122 | 0.671 | 0.798 | 0.628 | 0.45 | 0.423 | 1.06 | 0.984 | 1.01 | 1.03 | 0.793 | 0.201 | 0.21 | 0.2 | 0.229 | 0.22 | 1.29 | 0.837 | 0.954 | 0.854 | 0.517 |
| PC-3 [JPC-3] | 0.77 | 0.736 | 0.555 | 0.606 | 0.408 | 1.01 | 1.1 | 0.938 | 0.902 | 0.558 | 0.531 | 0.611 | 0.557 | 0.575 | 0.544 | 0.83 | 0.702 | 0.73 | 0.654 | 0.615 |
| PC-14 | 0.639 | 0.49 | 0.283 | 0.254 | 0.171 | 0.963 | 1.09 | 0.619 | 0.517 | 0.687 | 0.509 | 0.594 | 0.356 | 0.415 | 0.115 | 0.954 | 0.717 | 0.951 | 0.593 | 0.341 |
| RERF-LC-KJ | 0.593 | 0.235 | 0.458 | 0.387 | 0.243 | 0.914 | 1.04 | 0.762 | 0.749 | 0.816 | 1.15 | 1.15 | 0.845 | 0.87 | 0.565 | 0.674 | 0.489 | 0.565 | 0.532 | 0.485 |
| SK-LU-1 | 0.464 | 0.464 | 0.297 | 0.436 | 0.246 | 0.763 | 0.707 | 0.4 | 0.38 | 0.205 | 0.333 | 0.335 | 0.356 | 0.3 | 0.288 | 0.4 | 0.317 | 0.312 | 0.248 | 0.234 |
| SK-MES-1 | 0.322 | 0.312 | 0.259 | 0.262 | 0.177 | 0.906 | 0.866 | 0.599 | 0.33 | 0.334 | 0.329 | 0.324 | 0.266 | 0.337 | 0.228 | 0.589 | 0.567 | 0.558 | 0.319 | 0.211 |
| SW 1573 | 0.624 | 0.562 | 0.454 | 0.314 | 0.174 | 0.895 | 0.889 | 0.826 | 0.668 | 0.518 | 0.373 | 0.385 | 0.298 | 0.306 | 0.113 | 0.898 | 0.402 | 0.641 | 0.666 | 0.438 |
